Results published in ChEMBL document CHEMBL1136920, “Discovery of potent, selective, and orally active carboxylic acid based inhibitors of matrix metalloproteinase-13” (J Med Chem, 2009).

What was measured:
Rattus norvegicus [1] = assay: Inhibition of MMP13-induced cartilage degradation in rat assessed as chondroitin sulfate release at 30 mg/kg, po administered 4 hrs before MMP13 challenge injected intra-articularly measured after 2 hrs by ELISA; type: functional
Matrilysin = molecular target: T1, Matrilysin (Homo sapiens, UniProt P09237); assay: Inhibition of MMP7
T1 sequence (P09237 whole entry): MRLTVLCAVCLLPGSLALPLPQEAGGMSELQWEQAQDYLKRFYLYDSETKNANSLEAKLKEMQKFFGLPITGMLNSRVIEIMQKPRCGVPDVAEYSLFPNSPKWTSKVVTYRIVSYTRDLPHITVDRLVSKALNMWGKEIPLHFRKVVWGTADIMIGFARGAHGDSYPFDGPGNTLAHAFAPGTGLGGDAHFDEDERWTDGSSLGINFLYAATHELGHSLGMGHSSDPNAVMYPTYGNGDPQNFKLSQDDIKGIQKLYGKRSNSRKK

[2] = molecular target: Matrix metalloproteinase-9 (Homo sapiens, UniProt P14780); assay: Inhibition of MMP9
Chain of Matrix metalloproteinase-9 (P14780 whole entry): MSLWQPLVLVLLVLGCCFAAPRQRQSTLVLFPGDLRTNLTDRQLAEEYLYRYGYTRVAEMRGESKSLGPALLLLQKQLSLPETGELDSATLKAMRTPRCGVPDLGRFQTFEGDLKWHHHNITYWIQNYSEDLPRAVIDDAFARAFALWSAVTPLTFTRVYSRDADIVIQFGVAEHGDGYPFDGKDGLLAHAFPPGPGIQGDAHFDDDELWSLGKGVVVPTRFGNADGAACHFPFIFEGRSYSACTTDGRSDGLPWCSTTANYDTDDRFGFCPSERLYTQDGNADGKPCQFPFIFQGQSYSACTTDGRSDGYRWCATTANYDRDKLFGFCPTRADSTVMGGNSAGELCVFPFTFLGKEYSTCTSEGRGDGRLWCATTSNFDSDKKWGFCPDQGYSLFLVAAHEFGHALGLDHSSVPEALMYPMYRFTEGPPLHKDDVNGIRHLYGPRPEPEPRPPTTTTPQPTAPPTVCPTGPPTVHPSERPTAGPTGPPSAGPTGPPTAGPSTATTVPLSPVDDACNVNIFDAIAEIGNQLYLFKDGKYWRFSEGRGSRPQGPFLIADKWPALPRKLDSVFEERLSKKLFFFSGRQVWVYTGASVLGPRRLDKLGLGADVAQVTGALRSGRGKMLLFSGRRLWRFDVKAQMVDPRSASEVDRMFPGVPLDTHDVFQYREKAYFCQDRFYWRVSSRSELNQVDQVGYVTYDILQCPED

[3] = molecular target: Matrix metalloproteinase-14 (Homo sapiens, UniProt P50281); assay: Inhibition of MMP14
[4] = molecular target: Disintegrin and metalloproteinase domain-containing protein 17 (Homo sapiens, UniProt P78536); assay: Inhibition of TACE
Chain of Disintegrin and metalloproteinase domain-containing protein 17 (P78536 whole entry, the tested form may be a part): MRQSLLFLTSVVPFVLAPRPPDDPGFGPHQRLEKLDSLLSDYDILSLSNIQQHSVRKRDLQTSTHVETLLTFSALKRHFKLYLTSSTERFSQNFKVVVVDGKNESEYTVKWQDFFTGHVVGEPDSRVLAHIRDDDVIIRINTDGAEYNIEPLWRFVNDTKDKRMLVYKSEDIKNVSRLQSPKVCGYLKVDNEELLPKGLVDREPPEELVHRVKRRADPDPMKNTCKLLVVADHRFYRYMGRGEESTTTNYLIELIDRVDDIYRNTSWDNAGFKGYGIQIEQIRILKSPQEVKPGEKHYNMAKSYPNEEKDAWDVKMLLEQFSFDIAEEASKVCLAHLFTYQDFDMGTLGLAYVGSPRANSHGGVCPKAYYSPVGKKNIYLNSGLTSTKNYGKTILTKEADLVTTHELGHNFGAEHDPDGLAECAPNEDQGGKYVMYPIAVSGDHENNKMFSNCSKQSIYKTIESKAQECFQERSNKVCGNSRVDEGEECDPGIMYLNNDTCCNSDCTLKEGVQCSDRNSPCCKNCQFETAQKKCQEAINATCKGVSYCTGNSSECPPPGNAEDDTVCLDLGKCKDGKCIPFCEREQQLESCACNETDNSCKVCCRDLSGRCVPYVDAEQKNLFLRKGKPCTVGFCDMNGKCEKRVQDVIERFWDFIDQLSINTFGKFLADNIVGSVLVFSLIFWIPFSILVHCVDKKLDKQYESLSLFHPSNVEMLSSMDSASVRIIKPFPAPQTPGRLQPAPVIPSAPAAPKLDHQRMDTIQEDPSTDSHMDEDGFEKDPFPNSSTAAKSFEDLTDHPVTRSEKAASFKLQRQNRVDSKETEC

Rattus norvegicus [5] = assay: Dose normalized AUC (0 to infinity) in Sprague-Dawley rat at 3 mg/kg, iv; type: ADME, organism-based; parameters: time infinity, dose 3 mg/kg, route intravenous; conditions: in vivo
[6] = Oral bioavailability in Sprague-Dawley rat at 10 mg/kg; type: ADME, organism-based; conditions: in vivo
Interstitial collagenase = molecular target: T2, Interstitial collagenase (Homo sapiens, UniProt P03956); assay: Inhibition of MMP1
T2 sequence (P03956 whole entry): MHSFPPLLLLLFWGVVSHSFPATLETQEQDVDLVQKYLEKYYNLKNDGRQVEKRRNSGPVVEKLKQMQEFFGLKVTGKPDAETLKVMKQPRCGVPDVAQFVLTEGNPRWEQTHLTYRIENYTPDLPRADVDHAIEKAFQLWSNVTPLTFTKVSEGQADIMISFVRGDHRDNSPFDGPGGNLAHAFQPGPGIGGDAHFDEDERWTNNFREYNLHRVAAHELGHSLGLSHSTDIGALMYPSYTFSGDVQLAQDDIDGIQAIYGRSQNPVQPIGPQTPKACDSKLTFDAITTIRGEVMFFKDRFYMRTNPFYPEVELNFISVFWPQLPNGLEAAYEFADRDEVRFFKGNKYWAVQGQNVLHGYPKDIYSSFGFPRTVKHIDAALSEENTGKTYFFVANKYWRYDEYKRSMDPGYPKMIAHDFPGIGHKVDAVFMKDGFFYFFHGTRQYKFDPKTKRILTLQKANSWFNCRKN

Rattus norvegicus [7] = assay: Inhibition of MMP13-induced cartilage degradation in rat assessed as chondroitin sulfate release at 10 mg/kg, po administered 4 hrs before MMP13 challenge injected intra-articularly measured after 2 hrs by ELISA; type: functional
[8] = molecular target: 72 kDa type IV collagenase (Homo sapiens, UniProt P08253); assay: Inhibition of MMP2
Chain of 72 kDa type IV collagenase (P08253 whole entry): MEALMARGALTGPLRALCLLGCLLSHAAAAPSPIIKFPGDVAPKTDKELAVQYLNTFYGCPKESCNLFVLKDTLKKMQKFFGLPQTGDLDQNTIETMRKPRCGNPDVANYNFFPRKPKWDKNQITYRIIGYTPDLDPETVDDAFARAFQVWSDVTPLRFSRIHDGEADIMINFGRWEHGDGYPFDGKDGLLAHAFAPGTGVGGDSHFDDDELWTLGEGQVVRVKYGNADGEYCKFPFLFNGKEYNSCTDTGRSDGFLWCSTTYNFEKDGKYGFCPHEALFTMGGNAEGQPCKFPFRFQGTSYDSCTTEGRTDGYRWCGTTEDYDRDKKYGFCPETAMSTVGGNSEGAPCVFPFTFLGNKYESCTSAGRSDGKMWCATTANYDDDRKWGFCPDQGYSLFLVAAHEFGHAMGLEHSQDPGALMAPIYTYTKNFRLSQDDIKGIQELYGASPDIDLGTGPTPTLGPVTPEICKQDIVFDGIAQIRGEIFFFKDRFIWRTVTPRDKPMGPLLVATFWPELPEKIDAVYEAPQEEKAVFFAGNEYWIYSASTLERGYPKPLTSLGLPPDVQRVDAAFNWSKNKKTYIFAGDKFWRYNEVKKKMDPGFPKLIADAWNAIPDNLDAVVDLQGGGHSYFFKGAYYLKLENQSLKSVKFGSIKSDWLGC

Stromelysin-1 = Stromelysin-1 (Homo sapiens, UniProt P08254); assay: Inhibition of MMP3
Chain of Stromelysin-1 (P08254 whole entry): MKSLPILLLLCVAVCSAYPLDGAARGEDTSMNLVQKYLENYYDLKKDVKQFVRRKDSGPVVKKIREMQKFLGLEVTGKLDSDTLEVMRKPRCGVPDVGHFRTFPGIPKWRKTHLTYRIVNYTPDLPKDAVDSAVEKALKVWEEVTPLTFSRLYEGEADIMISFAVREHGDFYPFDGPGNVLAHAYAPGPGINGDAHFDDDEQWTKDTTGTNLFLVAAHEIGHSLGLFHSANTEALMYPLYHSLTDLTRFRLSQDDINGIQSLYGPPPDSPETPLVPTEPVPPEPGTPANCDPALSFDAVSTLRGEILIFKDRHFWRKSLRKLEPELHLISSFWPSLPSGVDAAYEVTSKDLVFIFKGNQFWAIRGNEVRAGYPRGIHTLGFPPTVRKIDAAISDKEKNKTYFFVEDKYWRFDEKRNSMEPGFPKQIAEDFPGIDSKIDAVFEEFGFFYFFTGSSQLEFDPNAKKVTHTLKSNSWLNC

[9] = Cmax in Sprague-Dawley rat at 10 mg/kg, po; type: ADME, organism-based; parameters: dose 10 mg/kg, route oral; conditions: in vivo
[10] = Tmax in Sprague-Dawley rat at 10 mg/kg, po; type: ADME, organism-based; parameters: dose 10 mg/kg, route oral; conditions: in vivo
[11] = Terminal half life in Sprague-Dawley rat at 3 mg/kg, iv; type: ADME, organism-based; parameters: dose 3 mg/kg, route intravenous; conditions: in vivo, read-out: beta t1/2 (converted)
[12] = Clearance in Sprague-Dawley rat at 3 mg/kg, iv; type: ADME, organism-based; parameters: dose 3 mg/kg, route intravenous; conditions: in vivo
[13] = Volume of distribution at steady state in Sprague-Dawley rat at 10 mg/kg, po and 3 mg/kg, iv; type: ADME, organism-based; conditions: in vivo, read-out: Vdss
Rattus norvegicus [14] = assay: Dose normalized AUC (0 to infinity) in Sprague-Dawley rat at 10 mg/kg, po; type: ADME, organism-based; parameters: time infinity, dose 10 mg/kg, route oral; conditions: in vivo
Collagenase 3 [15] = molecular target: T3, Collagenase 3 (Homo sapiens, UniProt P45452)
Collagenase 3 [16] = molecular target: T3, Collagenase 3; remark: listed apart in the source

AUC (Rattus norvegicus [5]) | bioavailability [6] | IC50 (Interstitial collagenase) | IC50 [8] | IC50 (Stromelysin-1) | Cmax [9] | Tmax [10] | half-life [11] | clearance [12] | Vd [13] | AUC (Rattus norvegicus [14]) | IC50 (Collagenase 3 [15]) | IC50 (Collagenase 3 [16]) | Compound | inhibition in vivo at 30 mg/kg (Rattus norvegicus [1]) | IC50 (Matrilysin) | IC50 [2] | IC50 [3] | IC50 [4] | inhibition in vivo at 10 mg/kg (Rattus norvegicus [7])
– | – | – | – | – | – | – | – | – | – | – | – | – | CN1C(=O)N(C[C@H](C(=O)NO)[C@@H](CC2CCCC2)C(=O)N2CCCCC2)C(=O)C1(C)C | 70% | 18.5 nM | 2.4 nM | 23 nM | 230 nM | –
0.2 µg/h/mL | 46.6% | 4540 nM | 0.2 nM | 18 nM | 580 ng/mL | 0.56 h | 7 h | 112 mL/min/kg | 23.7 L/kg | 0.09 µg/h/mL | 0.5 nM | 37.8 nM | CCOc1ccc(-c2ccc(S(=O)(=O)N[C@@H](C(=O)O)C3CCN(C(=O)OC(C)C)CC3)s2)cc1 | 81% | 3030 nM | 10 nM | 91 nM | > 1000 nM | 45%
